Data: patent publication US20100298270A1, “Novel Compounds and Methods of Using Them” (SYNDAX PHARMACEUTICALS, INC., priority 2007, published 2010)

melting point: 145 °C
Structure (SMILES): O=C(NCc1ccn(O)c(=O)c1)OCc1cccnc1 [Example 14, Pyridin-3-ylmethyl (1-hydroxy-2-oxo-1,2-dihydropyridin-4-yl)methylcarbamate]
